Test results taken from US20250074911A1, “MACROCYCLIC BTK INHIBITORS” (Crossfire Oncology Holding B.V., priority 2021, published 2025).
Like-named read-outs stand apart in the source and are kept apart here.

Experiments:
[1] = biological target: full-length wt-BTK enzyme (Homo sapiens (Human), UniProt Q06187); assay: Biochemical kinase assay wt-BTK (IMAP)
Procedure: Biochemical kinase assay wt-BTK To determine the inhibitory activity of compounds on wt-BTK enzyme activity, the IMAP® assay (Molecular Devices) was used. […] After pre-incubation of 1 hour in the dark at room temperature, fluorescein-labeled MBP-derived substrate peptide (Molecular Devices, cat. no. RP 7123) was added, followed by ATP to start the reaction. Final enzyme concentration was 1.2 nM, final substrate concentration 50 nM, and final ATP concentration was 4 μM. The reaction was allowed to proceed for 2 hours at room temperature in the dark. The reaction was stopped by quenching with IMAP progressive binding solution according to the protocol of the manufacturer (Molecular Devices). Fluorescein polarization was measured on an Envision multimode reader (Perkin Elmer, Waltham, MA, U.S.A.). […] Results of the wt-BTK binding affinity are shown in Table 1 below. • IC50 wt-BTK: […]

[2] = biological target: full-length BTK C481S enzyme (Homo sapiens (Human), UniProt Q06187, C481S); assay: Biochemical kinase assay BTK C481S (IMAP)
Chain of full-length BTK C481S enzyme (Q06187 whole entry C481S): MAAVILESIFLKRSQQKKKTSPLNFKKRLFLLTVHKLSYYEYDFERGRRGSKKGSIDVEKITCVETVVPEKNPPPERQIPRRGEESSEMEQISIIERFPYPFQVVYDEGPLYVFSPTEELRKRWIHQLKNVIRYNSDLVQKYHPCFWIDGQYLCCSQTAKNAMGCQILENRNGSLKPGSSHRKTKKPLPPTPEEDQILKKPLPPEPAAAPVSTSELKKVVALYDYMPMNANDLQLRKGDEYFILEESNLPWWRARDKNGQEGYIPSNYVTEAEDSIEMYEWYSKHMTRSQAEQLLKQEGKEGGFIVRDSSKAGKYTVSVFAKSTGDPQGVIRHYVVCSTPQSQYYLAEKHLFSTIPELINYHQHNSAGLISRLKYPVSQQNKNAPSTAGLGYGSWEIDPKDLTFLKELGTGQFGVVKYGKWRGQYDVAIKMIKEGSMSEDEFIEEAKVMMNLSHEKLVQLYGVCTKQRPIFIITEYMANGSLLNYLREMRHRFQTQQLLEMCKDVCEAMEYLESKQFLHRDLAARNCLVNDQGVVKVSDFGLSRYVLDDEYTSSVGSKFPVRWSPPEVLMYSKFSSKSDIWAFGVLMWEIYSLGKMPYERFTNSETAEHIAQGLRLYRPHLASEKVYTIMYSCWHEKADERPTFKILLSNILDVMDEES
Procedure: Biochemical kinase assay BTK […] To determine the inhibitory activity of compounds on BTK C481S enzyme activity, the IMAP® assay (Molecular Devices) was used. […] After pre-incubation of 1 hour in the dark at room temperature, fluorescein-labeled MBP-derived substrate peptide (Molecular Devices, cat. no. RP 7123) was added, followed by ATP to start the reaction. Final enzyme concentration was 1.2 nM final substrate concentration 50 nM, and final ATP concentration was 7 μM. The reaction was allowed to proceed for 2 hours at room temperature in the dark. The reaction was stopped by quenching with IMAP progressive binding solution according to the protocol of the manufacturer (Molecular Devices). Fluorescein polarization was measured on an Envision multimode reader (Perkin Elmer, Waltham, MA, U.S.A.). IC50 were calculated using XLfitTM5 software (ID Business Solutions, Ltd., Surrey, U.K.). Results of the BTK […] binding affinity are shown in Table 1 below. • IC50 BTK […]: […]

[3] = system: wt-REC-1 mantle cell lymphoma cells; assay: Cell proliferation assay wt-REC-1 (ATPlite, 72 hours); format: cell-based
Procedure: Results of the BTK […] binding affinity are shown in Table 1 below. • IC50 BTK […]: […] wt-REC-1 mantle cell lymphoma cells were purchased from American Type Culture Collection via Synthego Corporation (cat. no. CRL-3004, ATCC). […] Luminescence was recorded on an Envision multimode reader. The cell signal at the start of incubation was recorded separately in order to distinguish between cell population growth and cell death. In addition, maximum growth was determined by incubation of a duplicate without compound in the presence of 0.3% DMSO. Percentage growth was used as the main y-axis signal. IC50s were fitted by non-linear regression using IDBS XLfitTM5 using a 4-parameter logistic curve, yielding a maximum signal, minimum signal, hill-parameter and IC50. Results of the wt-REC-1 proliferation are shown in Table 1 below. • IC50 wt-REC-1: […]

REC-1 T474I cell lines = assay: Cell proliferation assay REC-1 BTK T474I knock-in cells (ATPlite, 72 hours); format: cell-based; settings: read-out: IC50 REC-1 T474I
Procedure: Cell proliferation assay Generation of BTK […] knock-in cell lines wt-REC-1 cell lines expressing mutant BTK were created at Synthego Corporation. Cell lines expressing BTK […] was generated via CRISPR/Cas9. Monoclonal REC-1 […] cell lines were obtained by single cell cloning. The mutation status of all cell lines was confirmed via sequencing. […] Luminescence was recorded on an Envision multimode reader. The cell signal at the start of incubation was recorded separately in order to distinguish between cell population growth and cell death. In addition, maximum growth was determined by incubation of a duplicate without compound in the presence of 0.3% DMSO. Percentage growth was used as the main y-axis signal.

[4] = system: wt-TMD8 diffuse large B-cell lymphoma cells; assay: Cell proliferation assay wt-TMD8 (ATPlite, 120 hours); format: cell-based; settings: read-out: IC50 wt-TMD8
Procedure: Cell proliferation assay wt-TMD8 diffuse large B-cell lymphoma cells were purchased from Tokyo Medical and Dental University and cultured in RPMI-1640 cell culture medium (cat. no. 61870036, Life Technologies), supplemented with 10% (v/v) heat-inactivated fetal bovine calf serum and 1% penicillin/[…]. 1600 cells per well (in 45 μl) were seeded in a white 384-well culture plate (cat. no. 781080, Greiner Bio-One) and allowed to rest for at least 5 hours at 37° C., 95% humidity, and 5% CO2. 5 μl compound solution was added to the cells and incubation was continued for 120 hours (5 days), followed by addition of 24 μl ATPlite 1Step™ (PerkinElmer, Groningen, The Netherlands) solution was added to each well. Luminescence was recorded on an Envision multimode reader. The cell signal at the start of incubation was recorded separately in order to distinguish between cell population growth and cell death. In addition, maximum growth was determined by incubation of a duplicate without compound in the presence of 0.3% DMSO. Percentage growth was used as the main y-axis signal.

[5] = B-cell, wt-TMD8 cells, 120 hours, ATPlite
[6] = 72 hours; read-out: IC50 wt-REC-1

Chain of full-length wt-BTK enzyme (Q06187 whole entry): as the sequence (Q06187 whole entry C481S) above, with S481C counted along it

SMILES	IC50 [1]	IC50 [2]	IC50 ([3]; 72 h; read-out: IC50 wt-REC-1)	IC50 [4, 5]	IC50 [3, 6]	IC50 ([4]; wt-TMD8 cells, 120 hours, ATPlite)	IC50 (REC-1 T474I cell lines; Homo sapiens, Rec1, 72 hours)	IC50 (REC-1 T474I cell lines; 72 hours)	IC50 ([3]; 72 h, read-out: IC50 wt-REC-1)	IC50 (REC-1 T474I cell lines; Homo sapiens, Rec1, 72 h)	IC50 ([4]; B-cell, 120 h)
Nc1ncc2c3c1c(-c1ccc(C(=O)Nc4cc(C(F)(F)F)ccn4)cc1)nn3[C@@H]1CCC[C@H](C1)C(=O)NCC/C=C/2 [Example 4]	5 to 50 nM	5 to 50 nM	100 to 1000 nM	100 to 1000 nM			500 to 10000 nM				
Nc1ncc2c3c1c(-c1ccc(C(=O)Nc4cc(C(F)(F)F)ccn4)cc1)nn3[C@@H]1CCC[C@H](C1)NC(=O)CNCCC/C=C/2 [Example 31]	< 5 nM	< 5 nM	< 100 nM	< 100 nM			< 100 nM				
COc1ccc(F)cc1C(=O)NCc1ccc(-c2nc3n4c(cnc(N)c24)/C=C/CCNCC(=O)N[C@@H]2CC[C@@H]3C2)cc1 [Example 219]	< 5 nM	< 5 nM	100 to 1000 nM	< 100 nM			500 to 10000 nM				
CC(=O)N1CC/C=C/c2cnc(N)c3c(-c4ccc(C(=O)Nc5cc(C(F)(F)F)ccn5)cc4)nn(c23)[C@@H]2CCC[C@H](C2)NC(=O)C1 [Example 35]	< 5 nM	< 5 nM	< 100 nM	< 100 nM			100 to 500 nM				
CC1NC/C=C/c2cnc(N)c3c(-c4ccc(C(=O)Nc5cc(C(F)(F)F)ccn5)cc4)nn(c23)CC[C@@H](C)NC1=O (single isomer, unassigned) [Example 144]	5 to 50 nM	5 to 50 nM			1000 to 10000 nM	< 100 nM		500 to 10000 nM			
Nc1ncc2n3c(nc(-c4ccc(C(=O)Nc5cc(C(F)(F)F)ccn5)cc4)c13)[C@@H]1CC[C@H](C1)NC(=O)CNCC/C=C/2 [Example 209]	< 5 nM	< 5 nM	< 100 nM	< 100 nM			500 to 10000 nM				
Nc1ncc2c3c1c(-c1ccc(C(=O)Nc4cc(C(F)(F)F)ccn4)cc1)nn3[C@@H]1CCC[C@H](C1)C(=O)NCCCCCCCC2 [Example 119]	< 5 nM	< 5 nM	< 100 nM	< 100 nM			500 to 10000 nM				
CN1C/C=C/c2cnc(N)c3c(-c4ccc(C(=O)Nc5cc(C(F)(F)F)ccn5)cc4)nc(n23)[C@@H]2CCCN(C2)C(=O)CCCC1 [Example 129]	< 5 nM	< 5 nM							100 to 1000 nM	500 to 10000 nM	< 100 nM
CC(=O)N1CC/C=C/c2cnc(N)c3c(-c4ccc(C(=O)Nc5cc(C(F)(F)F)ccn5)cc4)nc(n23)[C@@H]2CC[C@H](C2)NC(=O)C1 [Example 220]	< 5 nM	< 5 nM	1000 to 10000 nM	< 100 nM			500 to 10000 nM				
C[C@@H]1CC(=O)N[C@@H]2CCC[C@H](C2)c2nc(-c3ccc(C(=O)Nc4cc(C#N)ccn4)cc3)c3c(N)ncc(n23)/C=C/CCN1 [Example 206]	< 5 nM	< 5 nM	< 100 nM	< 100 nM			500 to 10000 nM				
COc1ccc(F)cc1C(=O)NCc1ccc(-c2nc3n4c(cnc(N)c24)/C=C/CCN(C(C)=O)CC(=O)N[C@@H]2CC[C@@H]3C2)cc1 [Example 221]	< 5 nM	< 5 nM	1000 to 10000 nM	< 100 nM			500 to 10000 nM				
CC(=O)N1CC/C=C/c2cnc(N)c3c(-c4ccc(C(=O)Nc5cc(C(F)(F)F)ccn5)cc4)nn(c23)[C@@H]2CCC[C@H](C2)NC(=O)CC1 [Example 36]	< 5 nM	< 5 nM	< 100 nM	< 100 nM			100 to 500 nM				
COc1cc(-c2nn3c4c(cnc(N)c24)/C=C/CCCCCC(=O)N[C@@H]2CCC[C@@H]3C2)ccc1C(=O)Nc1cc(C(F)(F)F)ccn1 [Example 197]	< 5 nM	< 5 nM	< 100 nM	< 100 nM			100 to 500 nM				
C[C@@H]1CCn2nc(-c3cnn(Cc4ccccc4)c3)c3c(N)ncc(c32)/C=C/CCCCCC(=O)N1 [Example 171]	50 to 500 nM	50 to 500 nM	1000 to 10000 nM	1000 to 10000 nM			500 to 10000 nM				
CN1C/C=C/c2cnc(N)c3c(-c4ccc(C(=O)Nc5cc(C(F)(F)F)ccn5)cc4)nn(c23)[C@@H]2CCCN(C2)C(=O)CCCC1 [Example 82]	< 5 nM	< 5 nM	100 to 1000 nM	< 100 nM			500 to 10000 nM				

The next lines start with results.

IC50 [1]	IC50 [2]	IC50 ([3]; 72 h; read-out: IC50 wt-REC-1)	IC50 [4, 5]	IC50 [3, 6]	IC50 ([4]; wt-TMD8 cells, 120 hours, ATPlite)	SMILES	IC50 (REC-1 T474I cell lines; Homo sapiens, Rec1, 72 hours)	IC50 (REC-1 T474I cell lines; 72 hours)	IC50 ([3]; 72 h, read-out: IC50 wt-REC-1)	IC50 (REC-1 T474I cell lines; Homo sapiens, Rec1, 72 h)	IC50 ([4]; B-cell, 120 h)
< 5 nM	< 5 nM	< 100 nM	< 100 nM			Nc1ncc2c3c1c(-c1ccc(C(=O)Nc4cc(C(F)(F)F)ccn4)cc1)nn3[C@@H]1CCC[C@H](C1)NC(=O)CCCCCC/C=C/2 [Example 16]	< 100 nM				
5 to 50 nM	5 to 50 nM	1000 to 10000 nM	100 to 1000 nM			Nc1ncc2c3c1c(-c1ccc(C(=O)Nc4cc(C(F)(F)F)ccn4)cc1)nn3[C@@H]1CCC[C@H](C1)NC(=O)CNC/C=C\C2 [Example 105]	500 to 10000 nM				
< 5 nM	< 5 nM	1000 to 10000 nM	< 100 nM			CC1NC/C=C/c2cnc(N)c3c(-c4ccc(C(=O)Nc5cc(C(F)(F)F)ccn5)cc4)nn(c23)[C@@H]2CCC[C@H](C2)NC1=O (stereo partly shown) [Example 145]	500 to 10000 nM				
< 5 nM	< 5 nM	< 100 nM	< 100 nM			Nc1ncc2c3c1c(-c1ccc(C(=O)Nc4cc(C(F)(F)F)ccn4)cc1)nn3[C@@H]1CCC[C@H](C1)NC(=O)[C@H]1CCN1CC/C=C/2 [Example 42]	100 to 500 nM				
< 5 nM	< 5 nM	< 100 nM	< 100 nM			Nc1ncc2c3c1c(-c1ccc(C(=O)Nc4cc(F)ccn4)cc1)nn3[C@@H]1CCC[C@H](C1)NC(=O)CCCCC/C=C/2 [Example 196]	< 100 nM				
< 5 nM	< 5 nM	< 100 nM	< 100 nM			Nc1ncc2n3c(nc(-c4ccc(C(=O)Nc5cc(C(F)(F)F)ccn5)cc4)c13)[C@@H]1CCC[C@H](C1)NC(=O)CCOCC/C=C/2 [Example 177]	100 to 500 nM				
< 5 nM	< 5 nM		< 100 nM	100 to 1000 nM		CC1NC/C=C/c2cnc(N)c3c(-c4ccc(C(=O)Nc5cc(C(F)(F)F)ccn5)cc4)nn(c23)CC[C@@H](C)NC1=O (single isomer, unassigned) [Example 143]	500 to 10000 nM				
< 5 nM	< 5 nM	< 100 nM	< 100 nM			C[C@@H]1CCn2nc(-c3ccc(C(=O)Nc4cc(C(F)(F)F)ccn4)cc3)c3c(N)ncc(c32)/C=C/C[C@@H](C)OCCC(=O)N1 [Example 72]	500 to 10000 nM				
